Patent EP0367514A2, “Human leukocyte elastase inhibitors and methods for producing and using same” (UNIVERSITY OF KENTUCKY RESEARCH FOUNDATION, priority 1988, dated 1990)

Biological target: T1, enzyme elastase, e.g., human leukocyte elastase (HLE) and porcine pancreatic elastase (PPE) (Homo sapiens, UniProt P08246)
T1 sequence (P08246 30-247): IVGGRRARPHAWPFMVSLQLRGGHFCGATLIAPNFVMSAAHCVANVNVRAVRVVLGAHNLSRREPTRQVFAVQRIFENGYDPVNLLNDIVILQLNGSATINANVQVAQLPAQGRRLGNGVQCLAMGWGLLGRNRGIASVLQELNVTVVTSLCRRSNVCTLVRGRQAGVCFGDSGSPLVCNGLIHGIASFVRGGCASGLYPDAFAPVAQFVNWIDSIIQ
Test: Elastase enzyme inhibitory studies (Ki of peptidyl carbamates)
Type: biochemical
Description: These studies are conducted to show the activities of some of the compounds of this invention as inhibitors of various forms of the enzyme elastase.
All enzyme assays are performed spectrophotometrically at 25 C using CARY 219 or 2200 Vanan Spectrometers. The activity of PPE is measured using 5-Boc-L-alinlne p-mtrophenyl ester (Boc-Ala-ONP), as the substrate and monitoring the absorbance at 347.5 nm (p-nitrophenol). The activity of HLE is measured using methoxy succinyl-L-analyl-L-alanyl L-prolyl-L-valine pnitroanilide (MeO-Suc-Ala-Ala-Pro-Val-NA), as the substrate and following the absorbance at 410 nm (pnitroaniline). Active inhibitors are tested against other serine dependent proteolytic enzymes such as tryps in and chymotryps in using their respective substrates. N-benzoyl-L-arginine ethyl ester, N-benzoyl-L-tyrosine ethyl ester and monitonng the absorbance at 253 and 256 respectively. […]

Ki (inhibitor dissociation constant) [nM] | SMILES
3 | COC(=O)CCC(=O)NC(CCCNC(=O)OCc1ccccc1)C(=O)NC(C)C(=O)N1CCCC1C(=O)CN(C(=O)Sc1nnnn1-c1ccccc1)C(C)C (stereo not drawn) [PC6, S-(1-phenyl-5-tetrazoyl)-N-[methoxysuccinyl-(N -carbobenzoyl)ornithylalanyl(prolylmethyl)-N-isopropylthio carbamate]
20 | COC(=O)CCC(=O)NC(C)C(=O)NC(CCCCNC(=O)OCc1ccccc1)C(=O)N1CCCC1C(=O)CN(C(=O)Sc1nnnn1-c1ccccc1)C(C)C (stereo not drawn) [PC5, S-(1-phenyl-5-tetrazoyl)-N-[methoxysuccinyl-alanyl-(N∈-Carbobenzoxyl)lysylprolylmethyl]-N-isopropyl-thio carbamate]
